Test results reported in US8609694B2, “Use of pyridin-2-yl-methylamine derivatives for the production of a medicament for the treatment of chronic pain symptoms of neuropathological or psychogenic origin” (Pierre Fabre Medicament, priority 2003, dated 2013).

Experiments:
[1] = system: hypersensitivity (allodynia) after unilateral ligature of the infraorbital nerve (peripheral neuropathy); experiment: peripheral neuropathy test in the rat (unilateral ligature of the infraorbital nerve, von Frey hair response score 0-4); type: in vivo; settings: for analgesic effect six days after the treatment's end (day 21): day 21, 6 days after pump explantation, same doses; for reduction of hypersensitivity (allodynia) to stimulation during treatment, versus saline: osmotic pump 14 days implanted 24 hours before lesion, (Ia) 0.63, (Ib) 0.16, morphine 5, baclofen 1.06 mg/rat/day, days 4-15; for amplitude of decrease of perceived pain intensity compared with baclofen: after nerve lesion of peripheral origin; for amplitude of analgesia 6 days after the treatment's end compared with amplitude at the treatment's end (day 15): day 21 versus day 15
Experimental: The peripheral neuropathy test used was conducted in the rat according to a method analogous to that described by Vos in J. Neurosci. 1994, 14, 2708-2723. The product to be tested is delivered at a constant rate (0.12 ml/day) by means of an osmotic pump (Alzet, model 2ML2) for 14 days. The pumps are implanted 24 hours before lesion (unilateral ligature of the infraorbital nerve) and then explanted at the treatment's end. The pumps are implanted subcutaneously via a transverse incision made in the dorsal skin of the rat. Evaluation of the intensity of perceived pain is objectified from a series of behavioral signs observed in response to mechanical stimulation of the region lesioned by means of von Frey hairs. Stimulations are applied in order of increasing intensity. Intensity of perceived pain is evaluated from the following criteria: 0, no response by the animal; 1, detection (i.e., the rat turns its head towards the object used for stimulation); 2, withdrawal (i.e., the rat turns away or makes a withdrawal movement with its head to avoid the object used for stimulation); 3, flight or attack (i.e., the rat avoids the object by moving its body or deliberately attacks the object used for stimulation); 4, face rubbing (i.e., the rat rubs the area of stimulation three times in succession). The response level by the non-lesioned animals was 0 or 1.
The fumarate of compound (Ia) is administered at 0.63 mg/rat/day; the glycolate of compound (Ib) at 0.16 mg/rat/day; morphine hydrochloride at 5 mg/rat/day, and baclofen at 1.06 mg/rat/day. All the compounds are administered in solution in distilled water. The pumps implanted in the control animals release a 0.9% NaCl solution (saline)/rat/day; the doses refer to the weight of non-salified compound.
The effects obtained with compounds (Ia), (Ib), and the products chosen as references are represented in FIGS. 4 to 8 in the appendix. FIGS. 4 to 7 represent the analgesic effects of the various products evaluated at days 4, 6, 8, 11, and 13 of treatment and 1 day following explantation of the pump (day 15). FIG. 8 represents the analgesic effects of the various products measured at day 21, which is 6 days following the treatment's end.
The individual scores of each animal represent the average (±standard error) obtained after application of the von Frey hairs. The comparison of the results between the various groups as well as the progress of the values obtained over time are performed using an analysis of variance test (ANOVA), followed by a Dunnett's multiple comparison test.

[2] = system: chronic hypersensitivity after spinal cord lesion (central neuropathy); experiment: central neuropathy test in the rat (spinal cord lesion, vocalization threshold to von Frey hairs); type: in vivo; settings: fumarate of (Ia) 0.63 mg/rat/day
Experimental: The central neuropathy test used is conducted in the rat according to a method analogous to that described by Hao and Xu in Pain 1996, 66, 279-286. The product to be tested is delivered at a constant rate by means of an osmotic pump (Alzet, model 2ML2) for 14 days. The pumps are implanted 28 days after spinal cord lesion and then explanted at the treatment's end. In this model, it was established that at 28 days post-lesion the animal is in a phase of chronic hypersensitivity which then lasts for several months. In this experiment, the hypersensitivity of the lesioned animals treated with compound (Ia) or with saline solution was measured. The pain threshold was objectified by the animal's persistent vocalization in response to a stimulation of increasing intensity in the sensitive region by means of von Frey hairs. […] The fumarate of compound (Ia) is administered at 0.63 mg/rat/day. The pumps implanted in the group of lesioned control animals release a 0.9% NaCl solution (saline)/rat/day.
The stimulation sensitivity tests by means of von Frey hairs are conducted 3 days after implantation of the osmotic pump and continue regularly for 28 days. The doses refer to the weight of non-salified compound.
The effects obtained with compound (Ia) in comparison with those of the lesioned control animals that received saline solution are represented in FIG. 3 in the appendix.

[3] = system: hypersensitivity (allodynia) after unilateral ligature of the infraorbital nerve (peripheral neuropathy); settings: rat infraorbital nerve ligature model; cited from earlier work

Row | Compound | analgesic effect six days after the treatment's end (day 21) [1] | reduction of hypersensitivity (allodynia) to stimulation during treatment, versus saline [1] | amplitude of decrease of perceived pain intensity compared with baclofen [1] | amplitude of analgesia 6 days after the treatment's end compared with amplitude at the treatment's end (day 15) [1] | analgesia after treatment is interrupted (curative phase) ([2]; after day 15, 14 days following pump explantation) | symptomatic analgesia (vocalization threshold to von Frey stimulation) during treatment, versus saline ([2]; osmotic pump 14 days implanted 28 days after spinal cord lesion) | activity in the peripheral neuropathy model as established previously [3]
1 | CN1CC[C@]23c4c5ccc(O)c4O[C@H]2[C@@H](O)C=C[C@H]3[C@H]1C5 [morphine, reference compound] | disappeared completely | inactive |  |  |  |  | 
2 | Cc1ccc(CNCC2(F)CCN(C(=O)c3ccc(F)c(Cl)c3)CC2)nc1 [Compound (Ia)] | continued to show a significant analgesic effect | significantly after day 11 | at least equivalent | not statistically different | analgesia persists and is maintained at the same level as that attained at the treatment's end | statistically significant as of the tenth day of treatment | 
3 | NCC(CC(=O)O)c1ccc(Cl)cc1 (stereo not drawn) [baclofen, reference compound] | disappeared completely | significant analgesic effect after day 11 |  |  |  |  | agent with the highest activity
4 | CNc1nc(CNCC2(F)CCN(C(=O)c3ccc(F)c(Cl)c3)CC2)ccc1C [Compound (Ib)] | continued to show a significant analgesic effect | significantly only after day 13 | at least equivalent | not statistically different |  |  | 
